Test results reported in ChEMBL document CHEMBL2073809, “Interrelationship between substrates and inhibitors of human CYP3A and P-glycoprotein” (Pharm Res, 1999).

Legend:
ABCB1 (P-glycoprotein) [1] = biological target: T1, ABCB1 (P-glycoprotein) (Homo sapiens, UniProt P08183); test: TP_TRANSPORTER: inhibition of Digoxin transepithelial transport (basal to apical) (Digoxin: 5 uM, Erythromycin: 100 uM) in Caco-2 cells; format: functional, cell-based; settings: Caco-2, probe digoxin
[2] = biological target: T2, ATP-dependent translocase ABCB1 (Mus musculus, UniProt P21447); test: TP_TRANSPORTER: no change in plasma concentration in mdr1a(-/-) mouse; format: functional, organism-based; settings: in vivo
[3] = biological target: T2, ATP-dependent translocase ABCB1; test: TP_TRANSPORTER: no change in liver concentration in mdr1a(-/-) mouse; format: functional, organism-based; settings: in vivo
[4] = biological target: T2, ATP-dependent translocase ABCB1; test: TP_TRANSPORTER: no change in kidney concentration in mdr1a(-/-) mouse; format: functional, organism-based; settings: in vivo
ABCB1 (P-glycoprotein) [5] = biological target: T1, ABCB1 (P-glycoprotein); test: TP_TRANSPORTER: inhibition of Digoxin transepithelial transport (basal to apical)(Digoxin: 5 uM, Terfenadine: 10 uM) in Caco-2 cells; format: functional, cell-based; settings: Caco-2, probe digoxin
ABCB1 (P-glycoprotein) [6] = biological target: T1, ABCB1 (P-glycoprotein); test: TP_TRANSPORTER: inhibition of Digoxin transepithelial transport (basal to apical) (Digoxin: 5 uM, Lovastatin: 100 uM) in Caco-2 cells; format: functional, cell-based; settings: Caco-2, probe digoxin
[7] = biological target: T3, ATP-dependent translocase ABCB1 (Homo sapiens, UniProt P08183); test: TP_TRANSPORTER: inhibition of Digoxin transepithelial transport (basal to apical)(Digoxin: 5 uM, 1-hydroxymidazolam: 100 uM) in Caco-2 cells; format: functional, cell-based; settings: caco-2, 100 µM
[8] = biological target: T3, ATP-dependent translocase ABCB1; test: TP_TRANSPORTER: transepithelial transport (basal to apical) in MDR1-expressing LLC-PK1 cells; format: functional, cell-based; settings: pig
ABCB1 (P-glycoprotein) [9] = biological target: T1, ABCB1 (P-glycoprotein); test: TP_TRANSPORTER: inhibition of Digoxin transepithelial transport (basal to apical) (Digoxin: 5 uM, S-mephenytoin: 100 uM) in Caco-2 cells; format: functional, cell-based; settings: Caco-2, probe digoxin
ABCB1 (P-glycoprotein) [10] = biological target: T1, ABCB1 (P-glycoprotein); test: TP_TRANSPORTER: inhibition of Digoxin transepithelial transport (basal to apical)(Digoxin: 5 uM, Midazolam: 100 uM) in Caco-2 cells; format: functional, cell-based; settings: Caco-2, probe digoxin
ABCB1 (P-glycoprotein) [11] = biological target: T1, ABCB1 (P-glycoprotein); test: TP_TRANSPORTER: inhibition of Digoxin transepithelial transport (basal to apical)(Digoxin: 5 uM, 6beta-hydroxycortisol: 100 uM) in Caco-2 cells; format: functional, cell-based; settings: Caco-2, probe digoxin
ABCB1 (P-glycoprotein) [12] = biological target: T1, ABCB1 (P-glycoprotein); test: TP_TRANSPORTER: inhibition of Digoxin transepithelial transport (basal to apical)(Digoxin: 5 uM, Tamoxifen: 100 uM) in Caco-2 cells; format: functional, cell-based; settings: Caco-2, probe digoxin

T1 sequence (P08183 whole entry): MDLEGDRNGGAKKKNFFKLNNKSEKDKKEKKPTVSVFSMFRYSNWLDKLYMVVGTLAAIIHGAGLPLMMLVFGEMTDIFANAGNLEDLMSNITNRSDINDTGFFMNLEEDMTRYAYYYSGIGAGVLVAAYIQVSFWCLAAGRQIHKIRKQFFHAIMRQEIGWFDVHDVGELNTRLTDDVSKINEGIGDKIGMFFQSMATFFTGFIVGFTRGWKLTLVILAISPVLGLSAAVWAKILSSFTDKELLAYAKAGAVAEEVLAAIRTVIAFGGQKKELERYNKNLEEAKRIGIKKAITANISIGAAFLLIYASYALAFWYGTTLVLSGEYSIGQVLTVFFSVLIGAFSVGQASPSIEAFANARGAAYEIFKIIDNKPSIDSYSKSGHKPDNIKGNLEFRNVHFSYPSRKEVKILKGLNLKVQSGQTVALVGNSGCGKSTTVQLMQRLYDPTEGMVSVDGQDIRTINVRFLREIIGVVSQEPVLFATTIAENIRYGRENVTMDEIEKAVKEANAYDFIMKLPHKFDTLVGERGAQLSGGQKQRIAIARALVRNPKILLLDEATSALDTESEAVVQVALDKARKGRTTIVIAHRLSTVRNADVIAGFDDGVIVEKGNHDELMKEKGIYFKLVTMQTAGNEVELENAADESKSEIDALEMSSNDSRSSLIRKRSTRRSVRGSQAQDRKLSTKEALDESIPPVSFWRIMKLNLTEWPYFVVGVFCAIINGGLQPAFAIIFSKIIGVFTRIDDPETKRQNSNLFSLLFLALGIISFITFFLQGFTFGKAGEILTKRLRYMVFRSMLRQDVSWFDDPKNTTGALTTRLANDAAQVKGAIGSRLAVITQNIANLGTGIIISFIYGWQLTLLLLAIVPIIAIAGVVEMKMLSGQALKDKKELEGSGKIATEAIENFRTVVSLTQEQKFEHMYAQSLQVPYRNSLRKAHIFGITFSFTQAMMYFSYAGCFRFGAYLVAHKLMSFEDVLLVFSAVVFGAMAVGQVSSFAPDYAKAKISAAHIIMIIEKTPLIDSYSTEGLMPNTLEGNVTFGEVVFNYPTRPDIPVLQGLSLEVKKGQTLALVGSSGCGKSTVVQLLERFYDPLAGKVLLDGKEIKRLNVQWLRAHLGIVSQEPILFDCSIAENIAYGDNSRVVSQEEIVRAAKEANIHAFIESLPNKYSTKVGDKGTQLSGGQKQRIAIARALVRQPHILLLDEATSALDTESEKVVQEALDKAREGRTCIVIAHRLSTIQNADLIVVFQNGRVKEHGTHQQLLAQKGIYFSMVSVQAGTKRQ
T3 sequence (P08183 whole entry): as above
T2 sequence (P21447 whole entry): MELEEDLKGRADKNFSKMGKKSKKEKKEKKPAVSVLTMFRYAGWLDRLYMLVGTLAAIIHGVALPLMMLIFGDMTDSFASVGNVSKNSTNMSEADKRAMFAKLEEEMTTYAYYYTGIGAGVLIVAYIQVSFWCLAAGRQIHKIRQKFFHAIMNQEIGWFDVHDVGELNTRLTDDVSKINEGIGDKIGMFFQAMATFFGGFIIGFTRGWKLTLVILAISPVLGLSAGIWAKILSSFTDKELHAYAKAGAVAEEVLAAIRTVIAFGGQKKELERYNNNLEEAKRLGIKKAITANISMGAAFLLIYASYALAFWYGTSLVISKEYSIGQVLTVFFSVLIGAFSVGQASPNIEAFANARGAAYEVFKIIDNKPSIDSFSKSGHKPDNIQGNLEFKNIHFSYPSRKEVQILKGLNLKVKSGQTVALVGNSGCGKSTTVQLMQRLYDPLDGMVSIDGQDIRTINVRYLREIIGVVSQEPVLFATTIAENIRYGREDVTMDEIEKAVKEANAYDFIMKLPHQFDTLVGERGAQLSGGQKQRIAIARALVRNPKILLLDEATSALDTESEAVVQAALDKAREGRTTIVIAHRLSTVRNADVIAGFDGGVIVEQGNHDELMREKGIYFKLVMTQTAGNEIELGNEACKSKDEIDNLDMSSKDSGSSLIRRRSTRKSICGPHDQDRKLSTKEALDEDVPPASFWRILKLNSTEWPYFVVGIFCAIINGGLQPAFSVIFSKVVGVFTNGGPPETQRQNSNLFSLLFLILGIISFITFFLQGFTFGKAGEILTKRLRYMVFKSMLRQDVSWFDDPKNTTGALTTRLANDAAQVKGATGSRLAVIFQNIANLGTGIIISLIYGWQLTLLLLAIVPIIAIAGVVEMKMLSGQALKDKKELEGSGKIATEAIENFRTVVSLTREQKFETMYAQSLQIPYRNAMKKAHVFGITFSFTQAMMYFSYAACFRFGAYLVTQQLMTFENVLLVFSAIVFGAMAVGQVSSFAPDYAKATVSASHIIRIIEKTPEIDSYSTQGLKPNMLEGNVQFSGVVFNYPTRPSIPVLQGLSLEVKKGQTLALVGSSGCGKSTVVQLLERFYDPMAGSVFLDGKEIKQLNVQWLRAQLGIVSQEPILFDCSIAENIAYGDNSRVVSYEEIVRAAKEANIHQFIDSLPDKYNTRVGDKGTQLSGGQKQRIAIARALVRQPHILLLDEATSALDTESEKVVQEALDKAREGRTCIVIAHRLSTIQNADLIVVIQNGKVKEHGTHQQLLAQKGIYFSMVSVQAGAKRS

Question: Which inhibition at 100 µM (ABCB1 (P-glycoprotein) [1]) does the source give for `CC[C@H]1OC(=O)[C@H](C)[C@@H](O[C@H]2C[C@@](C)(OC)[C@@H](O)[C@H](C)O2)[C@H](C)[C@@H](O[C@@H]2O[C@H](C)C[C@H](N(C)C)[C@H]2O)[C@](C)(O)C[C@@H](C)C(=O)[C@H](C)[C@@H](O)[C@]1(C)O` [ERYTHROMYCIN] here?
Answer: Its inhibition at 100 µM is 101%.

Question: For IVERMECTIN, which Activity [2] is on record?
Answer: Its Activity is “is not a substrate [-]”.

Question: What about the Activity [3] of the same molecule?
Answer: Its Activity is “is not a substrate [-]”.

Question: And the Activity [4]?
Answer: The Activity was “is not a substrate [-]”.

Question: How did the inhibition at 10 µM (ABCB1 (P-glycoprotein) [5]) turn out when `CC(C)(C)c1ccc(C(O)CCCN2CCC(C(O)(c3ccccc3)c3ccccc3)CC2)cc1` (centres undefined) [TERFENADINE] was run?
Answer: Its inhibition at 10 µM is 112%.

Question: `CC[C@H](C)C(=O)O[C@H]1C[C@@H](C)C=C2C=C[C@H](C)[C@H](CC[C@@H]3C[C@@H](O)CC(=O)O3)[C@H]21` [LOVASTATIN] was tested. Which inhibition at 100 µM (ABCB1 (P-glycoprotein) [6]) did it give?
Answer: Its inhibition at 100 µM is 65%.

Question: `OCc1ncc2n1-c1ccc(Cl)cc1C(c1ccccc1F)=NC2` [ALPHA-HYDROXY-MIDAZOLAM] was tested. Which Activity [7] did it give?
Answer: Its Activity is 63.

Question: How did the Activity [8] turn out when `COC(=O)C1=C(C)NC(C)=C(C(=O)OC)C1c1ccccc1[N+](=O)[O-]` [NIFEDIPINE] was run?
Answer: The Activity was “is not a substrate [-]”.

Question: `CC[C@@]1(c2ccccc2)NC(=O)N(C)C1=O` was tested. Which inhibition at 100 µM (ABCB1 (P-glycoprotein) [9]) did it give?
Answer: The inhibition at 100 µM was 42%.

Question: For `Cc1ncc2n1-c1ccc(Cl)cc1C(c1ccccc1F)=NC2` [MIDAZOLAM], which inhibition at 100 µM (ABCB1 (P-glycoprotein) [10]) is on record?
Answer: Its inhibition at 100 µM is 74%.

Question: And the Activity [8]?
Answer: The Activity was “is not a substrate [-]”.

Question: `N=C(N)N1CCc2ccccc2C1` [DEBRISOQUIN] was tested. Which Activity [8] did it give?
Answer: Its Activity is “substrate [+]”.

Question: `C[C@]12CCC(=O)C=C1[C@H](O)C[C@@H]1[C@@H]2[C@@H](O)C[C@@]2(C)[C@H]1CC[C@]2(O)C(=O)CO` was tested. Which inhibition at 100 µM (ABCB1 (P-glycoprotein) [11]) did it give?
Answer: Its inhibition at 100 µM is 57%.

Question: How did the inhibition at 100 µM (ABCB1 (P-glycoprotein) [12]) turn out when `CC/C(=C(\c1ccccc1)c1ccc(OCCN(C)C)cc1)c1ccccc1` [TAMOXIFEN] was run?
Answer: The inhibition at 100 µM was 86%.
